Laboratory results reported in patent publication US20230339891A1, “URACIL DERIVATIVES AS MER-AXL INHIBITORS” (BRISTOL-MYERS SQUIBB COMPANY, priority 2018, published 2023).

Assays:
[1] = molecular target: GST-MERTK 578-872 (Homo sapiens (Human), UniProt Q12866); assay: MERTK kinase homogeneous time resolved fluorescence (HTRF) binding assay; details: 1 nM kinase, fluorescein-labeled kinase tracer at Kd, 60 minutes at room temperature; read-out: Mer HTRF IC50
Procedure: (§1) MERTK, AXL, TYRO3 Kinase Homogeneous Time Resolved Fluorescence (HTRF) Assay
(§2) Assays were performed in black, flat-bottom, 1536-well plates. The reactions were incubated at room temperature for 60 minutes, following which the HTRF signals, ratio of fluorescence intensities at emission wavelengths for fluorescein acceptor (520 nm) and terbium donor (495 nm), the 520/495 ratio, were measured on the Envision Plate reader. Inhibition data were calculated from the 520/495 ratio generated by the no protein control reactions for 100% inhibition and vehicle-only reactions for 0% inhibition, and dose response curves generated to determine the concentration required for inhibiting 50% of the HTRF signal (IC50). Compounds were dissolved at 10 mM in dimethylsulfoxide (DMSO) and evaluated at eleven concentrations.

[2] = molecular target: HIS-AXL 473-End (Homo sapiens (Human), UniProt P30530); assay: AXL kinase homogeneous time resolved fluorescence (HTRF) binding assay; details: 1 nM kinase, fluorescein-labeled kinase tracer at Kd, 60 minutes at room temperature
Procedure: as §1, §2

Sequence of GST-MERTK 578-872 (Q12866 578-872): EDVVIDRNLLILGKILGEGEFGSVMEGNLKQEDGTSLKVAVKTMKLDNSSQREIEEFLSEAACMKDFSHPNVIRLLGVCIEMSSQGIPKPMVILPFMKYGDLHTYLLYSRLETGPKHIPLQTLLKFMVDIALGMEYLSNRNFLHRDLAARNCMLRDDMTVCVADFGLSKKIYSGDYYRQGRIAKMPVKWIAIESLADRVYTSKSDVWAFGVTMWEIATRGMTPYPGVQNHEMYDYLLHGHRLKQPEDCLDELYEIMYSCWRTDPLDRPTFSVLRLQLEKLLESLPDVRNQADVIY
Sequence of HIS-AXL 473-End (P30530 473-894): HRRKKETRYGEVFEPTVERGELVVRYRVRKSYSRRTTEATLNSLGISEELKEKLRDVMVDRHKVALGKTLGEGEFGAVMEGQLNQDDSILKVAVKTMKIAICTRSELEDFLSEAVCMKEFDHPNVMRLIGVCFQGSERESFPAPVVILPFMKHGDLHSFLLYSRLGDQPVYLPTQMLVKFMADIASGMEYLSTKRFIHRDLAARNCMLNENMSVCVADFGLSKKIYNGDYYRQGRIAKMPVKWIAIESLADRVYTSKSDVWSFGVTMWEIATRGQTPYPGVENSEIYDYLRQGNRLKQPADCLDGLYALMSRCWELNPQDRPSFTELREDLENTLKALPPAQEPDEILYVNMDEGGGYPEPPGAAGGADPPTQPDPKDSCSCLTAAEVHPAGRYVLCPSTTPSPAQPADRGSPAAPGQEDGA

Question: With `CC(C)n1cc(C(=O)Nc2ccc(Oc3ccnc(Nc4ccnc(N5CCC(S(C)(=O)=O)CC5)n4)c3)c(F)c2)c(=O)n(-c2ccc(F)cc2)c1=O` [Example 114] as the molecule, how does the IC50 [1] read?
Answer: 1.4 nM

Question: What about the IC50 [2] of the same molecule?
Answer: 0.6 nM

Question: What does the source list for `CC(C)n1cc(C(=O)Nc2ccc(Oc3ccnc(Nc4ccc(S(N)(=O)=O)cn4)c3)c(F)c2)c(=O)n(-c2ccc(F)cc2)c1=O` [Example 19]?
Answer: IC50 [1]: 4.4 nM; IC50 [2]: 1.6 nM

Question: Which results are given for `CC(C)n1cc(C(=O)Nc2ccc(Oc3ccnc(Nc4ccc(C(C)(C)O)cn4)c3)c(F)c2)c(=O)n(-c2ccc(F)cc2)c1=O` [Example 15]?
Answer: IC50 [1]: 8 nM; IC50 [2]: 1.7 nM

Question: `CC(C)n1cc(C(=O)Nc2ccc(Oc3ccnc(Nc4ncc(C(F)(F)F)cn4)c3)c(F)c2)c(=O)n(-c2ccc(F)cc2)c1=O` [Example 30] was tested. Which IC50 [1] did it give?
Answer: 165 nM

Question: What about the IC50 [2] of the same molecule?
Answer: 48 nM

Question: Which results are given for `CC(C)n1cc(C(=O)Nc2ccc(Oc3ccnc(Nc4ccc(S(=O)(=O)NC(C)(C)C)cn4)c3)c(F)c2)c(=O)n(-c2ccc(F)cc2)c1=O` [Example 80]?
Answer: IC50 [1]: 19 nM; IC50 [2]: 12 nM

Question: `CC(C)n1cc(C(=O)Nc2ccc(Oc3ccnc(Nc4cccc(C(F)(F)F)n4)c3)c(F)c2)c(=O)n(-c2ccc(F)cc2)c1=O` [Example 9] was tested. Which IC50 [1] did it give?
Answer: 16 nM

Question: What about the IC50 [2] of the same molecule?
Answer: 29 nM

Question: Which results are given for `CC(C)n1cc(C(=O)Nc2ccc(Oc3ccnc(Nc4ccc(C#N)c(N5CCN(S(C)(=O)=O)CC5)n4)c3)c(F)c2)c(=O)n(-c2ccc(F)cc2)c1=O` [Example 116, N-{4-[(2-{[5-cyano-6-(4-methanesulfonylpiperazin-1-yl)pyridin-2-yl]amino}pyridin-4-yl)oxy]-3-fluorophenyl}-3-(4-fluorophenyl)-2,4-dioxo-1-(propan-2-yl)-1,2,3,4-tetrahydropyrimidine-5-carboxamide]?
Answer: IC50 [1]: 1 nM; IC50 [2]: 1.5 nM

Question: `CC(C)n1cc(C(=O)Nc2ccc(Oc3ccnc(Nc4ccc(NS(C)(=O)=O)cn4)c3)c(F)c2)c(=O)n(-c2ccc(F)cc2)c1=O` [Example 87, N-[3-fluoro-4-({2-[(5-methanesulfonamidopyridin-2-yl)amino]pyridin-4-yl}oxy)phenyl]-3-(4-fluorophenyl)-2,4-dioxo-1-(propan-2-yl)-1,2,3,4-tetrahydropyrimidine-5-carboxamide] was tested. Which IC50 [1] did it give?
Answer: 6.7 nM

Question: And the IC50 [2]?
Answer: 16 nM

Question: For `CNS(=O)(=O)c1ccc(Nc2cc(Oc3ccc(NC(=O)c4cn(C(C)C)c(=O)n(-c5ccc(F)cc5)c4=O)cc3F)ccn2)nc1` [Example 77], which IC50 [1] is on record?
Answer: 8.3 nM

Question: What about the IC50 [2] of the same molecule?
Answer: 5 nM

Question: For `O=C(Nc1ccc(Oc2ccnc(Nc3ccc(Cl)cn3)c2)c(F)c1)c1cn(C2CC2)c(=O)n(-c2ccc(F)cc2)c1=O` [Example 36, N-[4-({2-[(5-chloropyridin-2-yl)amino]pyridin-4-yl}oxy)-3-fluorophenyl]-1-cyclopropyl-3-(4-fluorophenyl)-2,4-dioxo-1,2,3,4-tetrahydropyrimidine-5-carboxamide], which IC50 [1] is on record?
Answer: 38 nM

Question: And the IC50 [2]?
Answer: 11 nM

Question: `COc1cccc(-n2c(=O)c(C(=O)Nc3ccc(Oc4ccnc(Nc5ccc(S(=O)(=O)N(C)C)cn5)c4)c(F)c3)cn(C(C)C)c2=O)c1` [Example 71] was tested. Which IC50 [1] did it give?
Answer: 40 nM

Question: And the IC50 [2]?
Answer: 12 nM

Question: `CC(C)n1cc(C(=O)Nc2ccc(Oc3ccnc(Nc4ccc(C(F)F)cn4)c3)c(F)c2)c(=O)n(-c2ccc(F)cc2)c1=O` [Example 10] was tested. Which IC50 [1] did it give?
Answer: 43 nM

Question: And the IC50 [2]?
Answer: 15 nM

Question: Which results are given for `COC(=O)c1ccc(Nc2cc(Oc3ccc(NC(=O)c4cn(C(C)C)c(=O)n(-c5ccc(F)cc5)c4=O)cc3F)ccn2)nc1` [Example 14, Methyl 6-((4-(2-fluoro-4-(3-(4-fluorophenyl)-1-isopropyl-2,4-dioxo-1,2,3,4-tetrahydropyrimidine-5-carboxamido)phenoxy)pyridin-2-yl)amino)nicotinate]?
Answer: IC50 [1]: 11 nM; IC50 [2]: 3.6 nM

Question: Which results are given for `COC(=O)N1CCN(c2nc(Nc3cc(Oc4ccc(NC(=O)c5cn(C(C)C)c(=O)n(-c6ccc(F)cc6)c5=O)cc4F)ccn3)ccc2C#N)CC1` [Example 119]?
Answer: IC50 [1]: 1.5 nM; IC50 [2]: 4.2 nM

Question: Which IC50 [1] does the source give for `Cc1cnc(Nc2cc(Oc3ccc(NC(=O)c4cn(C(C)C)c(=O)n(-c5ccc(F)cc5)c4=O)cc3F)ccn2)nc1` [Example 31] here?
Answer: 158 nM

Question: What about the IC50 [2] of the same molecule?
Answer: 7.5 nM

Question: With `CC(C)n1cc(C(=O)Nc2ccc(Oc3ccnc(Nc4ccnc(N5CCCC5)n4)c3)c(F)c2)c(=O)n(CC2CCCCC2)c1=O` [Example 111] as the molecule, how does the IC50 [1] read?
Answer: 14 nM

Question: What does the source list for `CC(C)n1cc(C(=O)Nc2ccc(Oc3ccnc(Nc4ccc(C(F)(F)F)c(N5CCN(S(C)(=O)=O)CC5)n4)c3)c(F)c2)c(=O)n(-c2ccc(F)cc2)c1=O` [Example 138, N-{3-fluoro-4-[(2-{[6-(4-methanesulfonylpiperazin-1-yl)-5-(trifluoromethyl)pyridin-2-yl]amino}pyridin-4-yl)oxy]phenyl}-3-(4-fluorophenyl)-2,4-dioxo-1-(propan-2-yl)-1,2,3,4-tetrahydropyrimidine-5-carboxamide]?
Answer: IC50 [1]: 20 nM; IC50 [2]: 23 nM

Question: Which IC50 [1] does the source give for `CC(C)n1cc(C(=O)Nc2ccc(Oc3ccnc(Nc4ccc(S(=O)(=O)N(C)C)cn4)c3)c(F)c2)c(=O)n(-c2ccc(F)cn2)c1=O` [Example 48] here?
Answer: 15 nM

Question: And the IC50 [2]?
Answer: 4.4 nM

Question: `COC(=O)N1CCN(c2nc(Nc3cc(Oc4ccc(NC(=O)c5cn(C(C)C)c(=O)n(-c6ccc(F)cc6)c5=O)cc4F)ccn3)ccc2C(F)(F)F)CC1` [Example 139] was tested. Which IC50 [1] did it give?
Answer: 11 nM

Question: And the IC50 [2]?
Answer: 77 nM

Question: `CC(C)n1cc(C(=O)Nc2ccc(Oc3ccnc(Nc4ccc(C(=O)N(C)C)c(N5CCN(S(C)(=O)=O)CC5)n4)c3)c(F)c2)c(=O)n(-c2ccc(F)cc2)c1=O` [Example 97, N-{4-[(2-{[5-(Dimethylcarbamoyl)-6-(4-methanesulfonylpiperazin-1-yl)pyridin-2-yl]amino}pyridin-4-yl)oxy]-3-fluorophenyl}-3-(4-fluorophenyl)-2,4-dioxo-1-(propan-2-yl)-1,2,3,4-tetrahydropyrimidine-5-carboxamide] was tested. Which IC50 [1] did it give?
Answer: 1 nM

Question: What about the IC50 [2] of the same molecule?
Answer: 0.3 nM

Question: How did the IC50 [1] turn out when `CC(C)n1cc(C(=O)Nc2ccc(Oc3ccnc(Nc4ccc(S(=O)(=O)N(C)C)cn4)c3)cc2)c(=O)n(-c2ccccc2)c1=O` [Example 75, N-{4-[(2-{[5-(dimethylsulfamoyl)pyridin-2-yl]amino}pyridin-4-yl)oxy]phenyl}-2,4-dioxo-3-phenyl-1-(propan-2-yl)-1,2,3,4-tetrahydropyrimidine-5-carboxamide] was run?
Answer: 42 nM

Question: What about the IC50 [2] of the same molecule?
Answer: 3.5 nM

Question: `CC(C)Cn1c(=O)c(C(=O)Nc2ccc(Oc3ccnc(Nc4ccnc(N5CCCC5)n4)c3)c(F)c2)cn(C(C)C)c1=O` [Example 107] was tested. Which IC50 [1] did it give?
Answer: 5.4 nM

Question: And the IC50 [2]?
Answer: 11 nM

Question: With `CC(C)n1cc(C(=O)Nc2ccc(Oc3ccnc(Nc4ccc(S(=O)(=O)N5CC(O)C5)cn4)c3)c(F)c2)c(=O)n(-c2ccc(F)cc2)c1=O` [Example 82] as the molecule, how does the IC50 [1] read?
Answer: 8.8 nM

Question: And the IC50 [2]?
Answer: 256 nM

Question: What does the source list for `COC1CCN(c2nc(Nc3cc(Oc4ccc(NC(=O)c5cn(C(C)C)c(=O)n(-c6ccc(F)cc6)c5=O)cc4F)ccn3)ccc2C#N)CC1` [Example 121]?
Answer: IC50 [1]: 2.4 nM; IC50 [2]: 3.9 nM

Question: Which results are given for `CC(C)NS(=O)(=O)c1ccc(Nc2cc(Oc3ccc(NC(=O)c4cn(C(C)C)c(=O)n(-c5ccc(F)cc5)c4=O)cc3F)ccn2)nc1` [Example 78]?
Answer: IC50 [1]: 9.8 nM; IC50 [2]: 986 nM

Question: For `CC(C)n1cc(C(=O)Nc2ccc(Oc3ccnc(Nc4ccc5cc[nH]c5n4)c3)c(F)c2)c(=O)n(-c2ccc(F)cc2)c1=O` [Example 25], which IC50 [1] is on record?
Answer: 13 nM

Question: And the IC50 [2]?
Answer: 3.6 nM

Question: For `CC(C)n1cc(C(=O)Nc2ccc(Oc3ccnc(Nc4ccc(S(=O)(=O)N(C)C)c(N5CCN(S(C)(=O)=O)CC5)n4)c3)c(F)c2)c(=O)n(-c2ccc(F)cc2)c1=O` [Example 99, N-{4-[(2-{[5-(dimethylsulfamoyl)-6-(4-methanesulfonylpiperazin-1-yl)pyridin-2-yl]amino}pyridin-4-yl)oxy]-3-fluorophenyl}-3-(4-fluorophenyl)-2,4-dioxo-1-(propan-2-yl)-1,2,3,4-tetrahydropyrimidine-5-carboxamide], which IC50 [1] is on record?
Answer: 6.4 nM

Question: And the IC50 [2]?
Answer: 7.4 nM

Question: `CC(C)n1cc(C(=O)Nc2ccc(Oc3ccnc(Nc4ccc(OC(F)(F)F)cn4)c3)c(F)c2)c(=O)n(-c2ccc(F)cc2)c1=O` [Example 11] was tested. Which IC50 [1] did it give?
Answer: 128 nM

Question: And the IC50 [2]?
Answer: 53 nM

Question: `CC(C)n1cc(C(=O)Nc2ccc(Oc3ccnc(Nc4ccc(-n5ccnc5)cn4)c3)c(F)c2)c(=O)n(-c2ccc(F)cc2)c1=O` [Example 24] was tested. Which IC50 [1] did it give?
Answer: 12 nM

Question: And the IC50 [2]?
Answer: 5.6 nM

Question: For `C[C@H](CO)n1cc(C(=O)Nc2ccc(Oc3ccnc(Nc4ccc(S(=O)(=O)N(C)C)cn4)c3)c(F)c2)c(=O)n(-c2ccc(F)cc2)c1=O` [Example 56], which IC50 [1] is on record?
Answer: 17 nM

Question: `C[C@H](CO)n1cc(C(=O)Nc2ccc(Oc3ccnc(Nc4ccc(S(=O)(=O)N(C)C)cn4)c3)c(F)c2)c(=O)n(-c2ccc(F)cc2)c1=O` [Example 55] was tested. Which IC50 [1] did it give?
Answer: 6.7 nM

Question: For `COC(=O)N1CCN(c2nc(Nc3cc(Oc4ccc(NC(=O)c5cn(C(C)C)c(=O)n(Cc6ccccc6)c5=O)cc4F)ccn3)ccc2C#N)CC1` [Example 130], which IC50 [1] is on record?
Answer: 7.1 nM

Question: Which IC50 [1] does the source give for `CC(C)n1cc(C(=O)Nc2ccc(Oc3ccnc(Nc4ccnc(N5CCCC5)n4)c3)c(F)c2)c(=O)n(CC2CC2)c1=O` [Example 110] here?
Answer: 1.6 nM

Question: For `CC(C)n1cc(C(=O)Nc2ccc(Oc3ccnc(Nc4ccc(C#N)c(N5CCC(O)(C(F)(F)F)CC5)n4)c3)c(F)c2)c(=O)n(Cc2ccccc2)c1=O` [Example 132], which IC50 [1] is on record?
Answer: 12 nM

Question: For `CC(C)NC(=O)c1ccc(Nc2cc(Oc3ccc(NC(=O)c4cn(C(C)C)c(=O)n(-c5ccc(F)cc5)c4=O)cc3F)ccn2)nc1` [Example 94], which IC50 [1] is on record?
Answer: 3.5 nM
